According to patent US20050004172A1, “Solid state forms of 5-(difluoro-methoxy)-2-((3,4-dimethoxy-2-pyridinyl)-methyl) sulfinyl]-1H-benzimidazole sodium aquo complexes” (Pliva-Istrazivacki Institut d.o.o., priority 2003, published 2005):

What was measured:
[1] = Solid-state stability under normal storage conditions; type: physicochemical; settings: typically, but not limited to, temperatures of about 20° C. to about 30° C., relative humidity of about 30% to about 60%
[2] = Solid-state form conversion under crushing or compressing; type: physicochemical

stability under normal storage conditions [1]	conversion into other known solid-state forms of pantoprazole sodium [2]	Compound
stable	does not convert	COc1ccnc(C[S+]([O-])c2nc3ccc(OC(F)F)cc3[nH]2)c1OC (centres unmarked) [Form A4, 5-(difluoromethoxy)-2-[[(3,4-dimethoxy-2-pyridinyl)methyl]sulfinyl]-1H-benzimidazole]
stable	does not convert	COc1ccnc(C[S+]([O-])c2nc3ccc(OC(F)F)cc3[nH]2)c1OC (centres unmarked) [Form A3, 5-(difluoromethoxy)-2-[[(3,4-dimethoxy-2-pyridinyl)methyl]sulfinyl]-1H-benzimidazole]
stable	does not convert	COc1ccnc(C[S+]([O-])c2nc3ccc(OC(F)F)cc3[nH]2)c1OC (centres unmarked) [Form A1, 5-(difluoromethoxy)-2-[[(3,4-dimethoxy-2-pyridinyl)methyl]sulfinyl]-1H-benzimidazole]
stable	does not convert	COc1ccnc(C[S+]([O-])c2nc3ccc(OC(F)F)cc3[nH]2)c1OC (centres unmarked) [Form A2, 5-(difluoromethoxy)-2-[[(3,4-dimethoxy-2-pyridinyl)methyl]sulfinyl]-1H-benzimidazole]
